Source: PubChem BioAssay (NCI)
Several values for one entry are separate records, joined by “and”; a condition that tells them apart may be missing. Equal values may be shown once.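 Protocol summary: plate cells (96-well), add compound at 5 concentrations, incubate 48 h, interpolate endpoints linearly. Here, GI50 denotes the concentration required for 50% inhibition of growth. TGI is the concentration that stops growth completely.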

Assays:
Assay in all cases: DTP human tumour cell line panel, 48 h
[1] = system: A498 renal
[2] = system: ACHN renal
[3] = system: HCT-116 colon
[4] = system: HOP-92 NSCLC
[5] = system: NCI-H226 lung
[6] = system: NCI-H23 lung
[7] = system: NCI-H460 lung
[8] = system: OVCAR-5 ovarian
[9] = system: RPMI-8226 leukemia
[10] = system: SNB-75 CNS

**Q.** `Nc1ccc2c(c1)[O][Sn]([c]1ccccc1)([c]1ccccc1)[O]C2=O` was tested. Which GI50 [1] did it give?
**A.** The GI50 was 18 µM.

**Q.** And the TGI [1]?
**A.** The TGI was 31.9 µM.

**Q.** And the GI50 [2]?
**A.** Its GI50 is 11.9 µM.

**Q.** What about the TGI [2] of the same compound?
**A.** Its TGI is 25.4 µM.

**Q.** What about the GI50 [3] of the same compound?
**A.** Its GI50 is 7.97 µM.

**Q.** And the TGI [3]?
**A.** The TGI was 15.7 µM.

**Q.** What about the GI50 [4] of the same compound?
**A.** The GI50 was 2.59 µM.

**Q.** And the TGI [4]?
**A.** Its TGI is 7.11 µM.

**Q.** What about the GI50 [5] of the same compound?
**A.** Its GI50 is 9.13 µM.

**Q.** What about the TGI [5] of the same compound?
**A.** Its TGI is 16.7 µM.

**Q.** And the GI50 [6]?
**A.** Its GI50 is 2.76 µM.

**Q.** What about the TGI [6] of the same compound?
**A.** Its TGI is 8.58 µM.

**Q.** What about the GI50 [7] of the same compound?
**A.** Its GI50 is 16 µM.

**Q.** And the TGI [7]?
**A.** Its TGI is 33.6 µM.

**Q.** And the GI50 [8]?
**A.** The GI50 was 17.2 µM.

**Q.** And the TGI [8]?
**A.** The TGI was 31.1 µM.

**Q.** What about the GI50 [9] of the same compound?
**A.** Its GI50 is 2500 nM.

**Q.** What about the TGI [9] of the same compound?
**A.** The TGI was 10.7 µM.

**Q.** And the GI50 [10]?
**A.** Its GI50 is 7.64 µM.

**Q.** And the TGI [10]?
**A.** Its TGI is 18.9 µM.

**Q.** Which results are given for `CN(C)CCNC(=O)c1cc([N+](=O)[O-])cc2ccc(-c3ccccc3)nc12`?
**A.** TGI [1]: 14.4 µM; TGI [2]: 28.5 µM; TGI [3]: 13.4 µM; TGI [4]: 27.4 µM; TGI [5]: 11.8 µM; TGI [6]: 27.6 µM; TGI [7]: 12.8 µM; TGI [8]: 27.6 µM; TGI [9]: 70.2 µM; TGI [10]: 23.8 µM

**Q.** What does the source list for `ClCCn1cnc2c(SCc3ccccc3)ncnc21`?
**A.** GI50 [1]: 3.23 µM; TGI [1]: 74.6 µM; GI50 [2]: 4.99 µM; TGI [2]: > 100 µM; GI50 [3]: 0.381 µM; TGI [3]: 38.4 µM; GI50 [4]: 16.3 µM; TGI [4]: > 100 µM; GI50 [5]: 31 µM; TGI [5]: > 100 µM; GI50 [6]: 29.2 µM; TGI [6]: > 100 µM; GI50 [7]: 0.356 µM; TGI [7]: 30.1 µM; GI50 [8]: > 100 µM; TGI [8]: > 100 µM; GI50 [9]: 730 nM; TGI [9]: 35.5 µM; GI50 [10]: 0.777 µM; TGI [10]: > 100 µM

**Q.** How did the TGI [1] turn out when `Cc1c2ncccc2c(C)c2c1[nH]c1ccccc12` was run?
**A.** Its TGI is 25.2 µM.

**Q.** What about the TGI [2] of the same compound?
**A.** The TGI was 26.5 µM.

**Q.** What about the TGI [3] of the same compound?
**A.** The TGI was 17.3 µM.

**Q.** And the TGI [4]?
**A.** The TGI was 25.3 µM.

**Q.** And the TGI [5]?
**A.** Its TGI is 35.9 µM.

**Q.** And the TGI [6]?
**A.** Its TGI is 26 µM.

**Q.** What about the TGI [7] of the same compound?
**A.** Its TGI is 28.7 µM.

**Q.** And the TGI [8]?
**A.** The TGI was 27.1 µM.

**Q.** And the TGI [9]?
**A.** The TGI was 26.2 µM.

**Q.** What about the TGI [10] of the same compound?
**A.** Its TGI is 22.6 µM.

**Q.** Which results are given for `COc1ccc(N=Cc2ccc(N(CCC#N)CCC#N)cc2)cc1`?
**A.** TGI [1]: > 100 µM; TGI [2]: > 100 µM; TGI [3]: > 100 µM; TGI [4]: > 100 µM; TGI [5]: > 100 µM; TGI [6]: > 100 µM; TGI [7]: > 100 µM; TGI [8]: > 100 µM; TGI [9]: > 100 µM; TGI [10]: > 100 µM

**Q.** `O=C1/C(=C\c2cccs2)Oc2ccccc21` was tested. Which TGI [1] did it give?
**A.** The TGI was > 100 µM.

**Q.** What about the TGI [2] of the same compound?
**A.** The TGI was > 100 µM.

**Q.** What about the TGI [3] of the same compound?
**A.** Its TGI is > 100 µM.

**Q.** What about the TGI [4] of the same compound?
**A.** Its TGI is 89 µM.

**Q.** And the TGI [5]?
**A.** Its TGI is > 100 µM.

**Q.** And the TGI [6]?
**A.** Its TGI is > 100 µM.

**Q.** And the TGI [7]?
**A.** The TGI was > 100 µM.

**Q.** What about the TGI [8] of the same compound?
**A.** The TGI was > 100 µM.

**Q.** What about the TGI [9] of the same compound?
**A.** Its TGI is > 100 µM.

**Q.** What about the TGI [10] of the same compound?
**A.** The TGI was > 100 µM.

**Q.** Which results are given for `CCOC(OC1=C(C#N)CCC1)C(CC)[Se]c1ccccc1` (centres undefined)?
**A.** TGI [1]: > 100 µM; TGI [2]: 81.9 µM; TGI [3]: 57.6 µM; TGI [4]: 54 µM; TGI [5]: 53.4 µM; TGI [6]: 25.1 µM; TGI [7]: > 100 µM; TGI [8]: 54.8 µM; TGI [9]: 49.8 µM; TGI [10]: 64.2 µM

**Q.** For `Cn1cnc([N+](=O)[O-])c1Sc1ncnc2nc[nH]c12`, which GI50 [1] is on record?
**A.** The GI50 was 8.55 µM and 26.1 µM.

**Q.** And the TGI [1]?
**A.** Its TGI is 82 µM and > 100 µM.

**Q.** And the GI50 [2]?
**A.** The GI50 was 38.1 µM and 41.7 µM.

**Q.** What about the TGI [2] of the same compound?
**A.** The TGI was > 100 µM.

**Q.** And the GI50 [3]?
**A.** The GI50 was 3.62 µM and 23.4 µM.

**Q.** What about the TGI [3] of the same compound?
**A.** Its TGI is > 100 µM.

**Q.** What about the TGI [4] of the same compound?
**A.** Its TGI is > 100 µM.

**Q.** And the GI50 [5]?
**A.** Its GI50 is 7.17 µM and > 27.2 µM.

**Q.** What about the TGI [5] of the same compound?
**A.** The TGI was > 100 µM.

**Q.** And the GI50 [6]?
**A.** The GI50 was 4.01 µM and 13.3 µM.

**Q.** What about the TGI [6] of the same compound?
**A.** Its TGI is > 100 µM.

**Q.** And the GI50 [7]?
**A.** Its GI50 is 6.58 µM and 16.5 µM.

**Q.** And the TGI [7]?
**A.** The TGI was > 100 µM.

**Q.** And the GI50 [8]?
**A.** The GI50 was 8.42 µM and 53.2 µM.

**Q.** What about the TGI [8] of the same compound?
**A.** Its TGI is > 100 µM.

**Q.** What about the GI50 [9] of the same compound?
**A.** Its GI50 is 3180 nM and 1550 nM.

**Q.** What about the TGI [9] of the same compound?
**A.** The TGI was > 100 µM.

**Q.** And the GI50 [10]?
**A.** Its GI50 is 0.461 µM and 3.03 µM.

**Q.** What about the TGI [10] of the same compound?
**A.** Its TGI is 17.1 µM and > 100 µM.

**Q.** For `c1c[nH]c(Cc2ncc(Cc3cnc[nH]3)[nH]2)n1`, which TGI [1] is on record?
**A.** The TGI was 86 µM.

**Q.** And the TGI [2]?
**A.** The TGI was 51.5 µM.

**Q.** What about the TGI [3] of the same compound?
**A.** The TGI was > 100 µM.

**Q.** What about the TGI [4] of the same compound?
**A.** Its TGI is > 100 µM.

**Q.** And the TGI [5]?
**A.** The TGI was 46.3 µM.

**Q.** And the TGI [6]?
**A.** The TGI was > 100 µM.

**Q.** What about the TGI [7] of the same compound?
**A.** The TGI was 96.2 µM.

**Q.** And the TGI [8]?
**A.** The TGI was 59.6 µM.

**Q.** What about the TGI [9] of the same compound?
**A.** Its TGI is > 100 µM.

**Q.** What about the TGI [10] of the same compound?
**A.** The TGI was > 100 µM.

**Q.** Which results are given for `Cc1c(C(=O)CC(=O)C(=O)NC2C3CC4CC(C3)CC2C4)[n+](=O)c2ccccc2n1[O-]` (centres undefined)?
**A.** TGI [1]: > 100 µM; TGI [2]: > 100 µM; TGI [3]: > 100 µM; TGI [4]: > 100 µM; TGI [5]: > 100 µM; TGI [6]: > 100 µM; TGI [7]: > 100 µM; TGI [8]: > 100 µM; TGI [9]: > 100 µM; TGI [10]: > 100 µM

**Q.** How did the GI50 [1] turn out when `CCN(CC)C(=S)SSC1CCCCC1` was run?
**A.** Its GI50 is 30.8 µM.

**Q.** What about the TGI [1] of the same compound?
**A.** The TGI was > 100 µM.

**Q.** What about the GI50 [2] of the same compound?
**A.** Its GI50 is 16.6 µM.

**Q.** And the TGI [2]?
**A.** Its TGI is 32 µM.

**Q.** And the GI50 [3]?
**A.** Its GI50 is 12.9 µM.

**Q.** What about the TGI [3] of the same compound?
**A.** Its TGI is 25.8 µM.

**Q.** And the GI50 [4]?
**A.** Its GI50 is 14.3 µM.

**Q.** And the TGI [4]?
**A.** Its TGI is 40 µM.

**Q.** What about the GI50 [5] of the same compound?
**A.** Its GI50 is 24.7 µM.

**Q.** And the TGI [5]?
**A.** The TGI was 76.1 µM.

**Q.** And the GI50 [6]?
**A.** Its GI50 is 20.8 µM.

**Q.** What about the TGI [6] of the same compound?
**A.** The TGI was 48.7 µM.

**Q.** And the GI50 [7]?
**A.** The GI50 was 18.3 µM.

**Q.** And the TGI [7]?
**A.** Its TGI is 52.7 µM.

**Q.** What about the GI50 [8] of the same compound?
**A.** Its GI50 is 18.7 µM.

**Q.** And the TGI [8]?
**A.** Its TGI is 32.7 µM.

**Q.** And the GI50 [9]?
**A.** Its GI50 is 9990 nM.

**Q.** And the TGI [9]?
**A.** The TGI was 31.4 µM.

**Q.** And the GI50 [10]?
**A.** The GI50 was 17.5 µM.

**Q.** What about the TGI [10] of the same compound?
**A.** Its TGI is 48 µM.
